Assay results reported in PubChem BioAssay (NCI).
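Tested at 5 concentrations; 48 h exposure; 96-well plates; endpoints linearly interpolated, else capped at highest concentration. GI50 = concentration required for 50% inhibition of growth. TGI is the concentration that stops growth completely.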

Key:
Assay in all cases: NCI tumour cell line growth inhibition, 48 h
DMS 114 small cell lung = test system: DMS 114 small cell lung
DMS 273 small cell lung = test system: DMS 273 small cell lung
HOP-18 NSCLC = test system: HOP-18 NSCLC
SNB-78 CNS = test system: SNB-78 CNS
XF 498 CNS = test system: XF 498 CNS
KM20L2 colon = test system: KM20L2 colon
LXFL 529 NSCLC = test system: LXFL 529 NSCLC
RXF-631 renal = test system: RXF-631 renal
P388 leukemia = test system: P388 leukemia
SN12K1 renal = test system: SN12K1 renal
P388/ADR leukemia = test system: P388/ADR leukemia

Work on `COC1=NCc2ccccc2-c2ccccc21` yielded a TGI (DMS 114 small cell lung) greater than 100 µM, a TGI (DMS 273 small cell lung) greater than 100 µM and a TGI (HOP-18 NSCLC) greater than 100 µM. For the same compound, the TGI (SNB-78 CNS) was greater than 100 µM and the TGI (XF 498 CNS) was greater than 100 µM.
For `COC(=O)Cc1cc(O)c2c(c1O)C(=O)c1ccccc1C2=O`, the TGI (DMS 114 small cell lung) was greater than 100 µM, the TGI (DMS 273 small cell lung) was greater than 100 µM and the TGI (HOP-18 NSCLC) was greater than 100 µM. It also gave a TGI (KM20L2 colon) greater than 100 µM, a TGI (LXFL 529 NSCLC) greater than 100 µM and a TGI (RXF-631 renal) greater than 100 µM. For the same compound, the TGI (SNB-78 CNS) was greater than 100 µM.
`C1=C(c2ccccc2)SC(N2CCCCC2)S1` (stereo unspecified) showed a TGI (DMS 114 small cell lung) greater than 100 µM, a TGI (DMS 273 small cell lung) greater than 100 µM and a TGI (KM20L2 colon) greater than 100 µM. It also gave a TGI (LXFL 529 NSCLC) greater than 100 µM, a TGI (SNB-78 CNS) greater than 100 µM and a TGI (XF 498 CNS) greater than 100 µM.
`CCCCCOc1ccc(C=Nc2ccc(CCc3ccc(N=Cc4ccc(OCCCCC)cc4)cc3)cc2)cc1` gave a TGI (DMS 114 small cell lung) greater than 100 µM, a TGI (DMS 273 small cell lung) greater than 100 µM and a TGI (HOP-18 NSCLC) greater than 100 µM. It also gave a TGI (KM20L2 colon) greater than 100 µM, a TGI (P388 leukemia) greater than 100 µM and a TGI (SN12K1 renal) greater than 100 µM. It also gave a TGI (SNB-78 CNS) greater than 100 µM and a TGI (XF 498 CNS) greater than 100 µM.
With `Cc1ccc(C)c(NC(=O)C(=O)C(C(=O)c2ccc3ccccc3c2)C2OC(=O)c3ccccc32)c1` (stereo unspecified) the TGI (DMS 114 small cell lung) was 26.3 µM, the TGI (DMS 273 small cell lung) was greater than 100 µM and the TGI (KM20L2 colon) was 53.3 µM. For the same compound, the TGI (LXFL 529 NSCLC) was 25.1 µM, the TGI (RXF-631 renal) was 65.6 µM and the TGI (SNB-78 CNS) was greater than 100 µM. It also gave a TGI (XF 498 CNS) of 44 µM.
In the case of `Cc1cc([NH-])c([NH-])cc1C.[Cl][Pt+2][Cl]`, the GI50 (DMS 114 small cell lung) is reported as 8.09 µM, the TGI (DMS 114 small cell lung) is reported as 32.3 µM and the GI50 (HOP-18 NSCLC) is reported as greater than 82 µM. The TGI (HOP-18 NSCLC) was greater than 100 µM, the GI50 (KM20L2 colon) was 20.2 µM and the TGI (KM20L2 colon) was greater than 81.9 µM. For the same compound, the GI50 (P388 leukemia) was 2.42 µM, the TGI (P388 leukemia) was 10.2 µM and the GI50 (P388/ADR leukemia) was 2.36 µM. The TGI (P388/ADR leukemia) was 6.97 µM, the GI50 (SN12K1 renal) was 13.5 µM and the TGI (SN12K1 renal) was 32 µM. For the same compound, the GI50 (SNB-78 CNS) was 26.5 µM, the TGI (SNB-78 CNS) was greater than 96 µM and the GI50 (XF 498 CNS) was 19.7 µM. The TGI (XF 498 CNS) was 46.4 µM.
For `c1ccc(-c2csc3c4ccccc4c4ccccc4[n+]23)cc1`, the TGI (DMS 114 small cell lung) was 4.89 µM, the TGI (DMS 273 small cell lung) was 4.58 µM and the TGI (HOP-18 NSCLC) was 49.6 µM. It also gave a TGI (KM20L2 colon) of 20.6 µM, a TGI (LXFL 529 NSCLC) of 16.6 µM and a TGI (SNB-78 CNS) of 11.1 µM. The TGI (XF 498 CNS) was 5.46 µM.
With `N=C1C(=N)c2ccccc2-c2ccccc21.[Cl-].[Ru+2].c1ccc(-c2ccccn2)nc1.c1ccc(-c2ccccn2)nc1` the GI50 (KM20L2 colon) was greater than 100 µM, the TGI (KM20L2 colon) was greater than 100 µM and the GI50 (LXFL 529 NSCLC) was greater than 100 µM. For the same compound, the TGI (LXFL 529 NSCLC) was greater than 100 µM, the GI50 (SNB-78 CNS) was greater than 100 µM and the TGI (SNB-78 CNS) was greater than 100 µM.
With `CNC(C)(C)Cc1ccc(Cl)cc1` the TGI (DMS 114 small cell lung) was greater than 100 µM, the TGI (KM20L2 colon) was greater than 100 µM and the TGI (LXFL 529 NSCLC) was greater than 100 µM. For the same compound, the TGI (XF 498 CNS) was greater than 100 µM.
